Read-outs that look alike come from different tables or passages of the source.
How the values were obtained:
collagen type III = experiment: Transformation of fibroblasts into myofibroblasts (anti-fibrosis test), collagen type III; format: cell-based; settings: Homo sapiens, Fibroblast; HFL1 cells, 20 ng/ml TGF-β1, 48 hours, supernatant; read-out: IC50 Human COL1 (collagen type III)
Method: (§1) (4) Transformation of Fibroblasts into Myofibroblasts (Anti-Fibrosis Test) • I. Main materials
(§2) HFL1 medium: F12K+10% FBS, adherent growth • II. Experimental Setup • 1. Normal group (medium only), model group (induced by 20 ng/ml TGF-β1), test sample group (20 ng/ml TGF-β1+ compound with different final concentration) • 2. 5 compounds, 3 concentration gradients, each gradient 2 repeat wells. • II. Experimental steps • 1. Digesting and counting, 5e^5 cells/well/2 ml, and seeded in 6-well plates. • 2. After adherent, adding TGF-β1 at a final concentration of 20 ng/ml and stimulating for 48 hours. Adding compounds with different final concentrations (0, 5 uM, 20 uM). • 3. Collecting the supernatant, and detecting the amount of col1 and col3 in the supernatant by kit. Lysing the cells with lysate solution, centrifuging, and collecting the supernatant. • 4. Detection of a-SMA and other genes by qPCR ii. Test Results • (1) BCL-9 affinity results are shown in Tables 1.1, 1.2, and 1.3, and the test methods were as described above.

Human AXIN2 = experiment: qPCR of AXIN2 expression in HCT116 cells; format: cell-based; settings: HCT-116, Table 2, HCT116 cells, AXIN2 vs β-actin, 24 hours
Method: Cells were digesting, counting, and plating cells in 24-well plates (flat bottom, clear), with 3×10^5 cells/500 ul DMEM (10% FBS) per well. • 2. Observing the state of cells on the next day, and start dosing after cell attachment is intact
Diluting 514 with DMEM (2% FBS) by gradient dilution with concentrations of 20 μM, 10 μM, 5 μM, 2.5 μM, 1.25 μM, 0.625 μM, 0.3125 μM, 0.15625 μM, 0 μM (equal volume DMSO)
Adding 500 μl of the above different concentrations of 514 to each well, and setting a single well for each concentration gradient except three repeat wells for the 0 μM concentration (double wells for qPCR). • 3. Incubating at 37° C. for 24 hours • 4. Discarding the supernatant, washing once with PBS, and adding trizol at 500/well • 5. RNA extraction (step omitted) • 6. Reverse transcription (step omitted, according to the kit) • 7. qPCR (step omitted, following the kit steps)
• 8. calculation of inhibition rate

BCL9/β-catenin = biological target: T1, BCL9/β-catenin (Homo sapiens, UniProt P35222); experiment: FP (BCL-9 avidity) fluorescence polarization competition assay with beta-catenin and FAP-Bcl9 tracer; format: binding
T1 sequence (P35222 1-781): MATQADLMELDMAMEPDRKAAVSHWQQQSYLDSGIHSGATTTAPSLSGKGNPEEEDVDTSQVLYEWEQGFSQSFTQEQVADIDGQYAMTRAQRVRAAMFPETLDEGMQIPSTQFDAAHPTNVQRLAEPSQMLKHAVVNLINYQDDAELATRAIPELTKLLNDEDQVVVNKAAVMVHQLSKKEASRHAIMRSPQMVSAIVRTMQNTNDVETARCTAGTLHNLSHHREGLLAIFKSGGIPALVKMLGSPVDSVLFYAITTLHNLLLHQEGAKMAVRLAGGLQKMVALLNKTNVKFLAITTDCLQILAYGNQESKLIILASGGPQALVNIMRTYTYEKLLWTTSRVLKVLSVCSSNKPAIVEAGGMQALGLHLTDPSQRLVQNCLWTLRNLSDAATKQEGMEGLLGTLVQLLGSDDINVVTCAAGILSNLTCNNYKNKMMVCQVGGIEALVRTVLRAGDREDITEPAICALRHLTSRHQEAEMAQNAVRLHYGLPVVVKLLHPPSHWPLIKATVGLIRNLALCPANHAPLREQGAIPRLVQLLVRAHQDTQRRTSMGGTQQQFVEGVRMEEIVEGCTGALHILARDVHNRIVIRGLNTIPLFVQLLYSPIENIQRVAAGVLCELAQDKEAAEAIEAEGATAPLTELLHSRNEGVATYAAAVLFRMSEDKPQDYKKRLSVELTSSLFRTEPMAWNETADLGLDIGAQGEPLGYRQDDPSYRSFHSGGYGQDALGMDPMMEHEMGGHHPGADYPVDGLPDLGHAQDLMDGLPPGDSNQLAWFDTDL
Method: Incubating for 2 hours on a horizontal shaker. Then adding 2 nM FAP-Bcl9 tracer to each well, and after incubation for 2H on a horizontal shaker, measuring the […].

HCT116 cells = experiment: CCK8 cell viability assay in HCT116 cells; format: cell-based; settings: Homo sapiens, HCT-116; Table 2, HCT116 cells, 24 hours
Method: • 1. HCT116 cell plating
Digesting, counting, and plating the cells in 96-well plates (flat bottom, transparent) with 10,000 cells/100 ul DMEM (10% FBS) per well; • 2. Observing the state of cells on the next day, and start dosing after cell attachment is intact; • 3. diluting 514 with DMEM (2% FBS) by gradient dilution with concentrations of 20 μM, 10 μM, 5 μM, 2.5 μM, 1.25 μM, 0.625 μM, 0.3125 μM, 0.15625 μM, 0 μM (equal volume of DMSO); • 4. Adding 100 μl of the above different concentrations of 514 to each well, and making two repeat wells for each concentration gradient; leaving three blank wells (only adding DMEM 2% FBS culture medium without cells). • 5. Culturing at 37° C. for 24 hours; • 6. Adding 10 μl CCK-8 enhanced solution to each well: due to the small amount added of CCK-8 in each well, it may cause errors resulting from the reagent staining on the wall of the well. It is recommended to gently tap the culture plate after adding the reagent to help mixing; • 7. Incubating in the incubator for 0.5-4 hours: the amount of Formazan formed is not the same for different cell types, in most cases, incubation for 1 hour is enough. If the color development is not enough, incubation can be continued to determine optimal conditions. • 8. Measuring the absorbance at 450 nm and 600 nm (excluding the interference of the background color of the reagent and the absorbance value of the well plate itself); • 9. Using OD450 nm-OD600 nm for the final absorbance, and calculating the inhibition rate:
[formula] • As: absorbance of experimental wells (medium containing cells, CCK-8, drug to be tested); • Ac: absorbance of control wells (medium containing cells, CCK-8, and no drug to be tested); • Ab: absorbance of blank wells (medium without cells and drug to be tested, CCK-8). (3) qPCR • 1. HCT116 cell plating

Human a-SMA = experiment: Transformation of fibroblasts into myofibroblasts (anti-fibrosis test), a-SMA; format: cell-based; settings: HFL1 cells, 20 ng/ml TGF-β1, 48 hours, qPCR
Method: as §1, §2

[1] = test system: Human COL1 (collagen type I); experiment: Transformation of fibroblasts into myofibroblasts (anti-fibrosis test), collagen type I; format: cell-based; settings: HFL1 cells, 20 ng/ml TGF-β1, 48 hours, supernatant
Method: as §1, §2

[2] = Table 2, FP (BCL-9 affinity), read-out: FP

SMILES	IC50 (collagen type III) [µM]	IC50 (Human AXIN2) [µM]	IC50 (BCL9/β-catenin; Table 1.2, compounds 7-16, read-out: BCL-9 avidity FP IC50) [µM]	IC50 (BCL9/β-catenin; [2]) [µM]	IC50 (HCT116 cells) [µM]	IC50 (Human a-SMA) [µM]	IC50 [1] [µM]
CC(C)(Oc1cccc(N2CCC[C@@H](C(=O)N(Cc3ccc(-c4cn[nH]c4)cc3)C3CC3)C2)c1Cl)C(=O)N1CCNCC1 [Compound 7, (3R)-1-(2-chloro-3-{[2-methyl-1-oxo-1-(piperazin-1-yl)propan-2-yl]oxy}phenyl)-N-cyclopropyl-N-{[4-(1H-pyrazol-4-yl)phenyl]methyl}piperidine-3-carboxamide]	10 to 20	1.46	3.15	3.15	1.05	20 to 30	10 to 20
CC(C)(Oc1cccc(N2CCC[C@@H](NC(=O)N(Cc3ccc(-c4cn[nH]c4)cc3)C3CC3)C2)c1)C(=O)NCCCN [Compound 19, N-(3-aminopropyl)-2-{3-[(3R)-3-{[cyclopropyl({[4-(1H-pyrazol-4-yl)phenyl]methyl})carbamoyl]amino}piperidin-1-yl]phenoxy}-2-methylpropanamide]	5 to 20	6.11	–	–	3.26	5 to 20	5.9
CC(C)(Oc1cccc(N2CCC[C@@H](NC(=O)N(Cc3ccc(-c4cn[nH]c4)cc3)C3CC3)C2)c1)C(=O)N1CCNCC1 [Compound 17, 1-cyclopropyl-3-[(3R)-1-(3-{[2-methyl-1-oxo-1-(piperazin-1-yl)propan-2-yl]oxy}phenyl)piperidin-3-yl]-1-{[4-(1H-pyrazol-4-yl)phenyl]methyl}urea]	20 to 30	4.67	–	–	1.84	5 to 10	10 to 20
CC(C)(Oc1cccc(N2CCC[C@@H](C(=O)N(Cc3ccc(C4=CCCCC4)c(Cl)c3)C3CC3)C2)c1)C(=O)N1CCNCC1 [Compound 13, (3R)-N-{[3-chloro-4-(cyclohex-1-en-1-yl)phenyl]methyl}-N-cyclopropyl-1-(3-{[2-methyl-1-oxo-1-(piperazin-1-yl)propan-2-yl]oxy}phenyl)piperidine-3-carboxamide]	–	10 to 50	–	10 to 50	10 to 50	–	–
CC(C)(Oc1cccc(N2CCC[C@@H](C(=O)N(Cc3ccc(-c4ccccc4)c(Cl)c3)C3CC3)C2)c1)C(=O)N1CCNCC1 [Compound 14, (3R)-N-[(3-chloro-4-phenylphenyl)methyl]-N-cyclopropyl-1-(3-{[2-methyl-1-oxo-1-(piperazin-1-yl)propan-2-yl]oxy}phenyl)piperidine-3-carboxamide]	–	10 to 50	–	10 to 50	10 to 50	–	–

Source: patent US20240391896A1 (Nantong Jutai Biotech Co., Ltd., priority 2021, published 2024)
